Like-named read-outs stand apart in the source and are kept apart here.
What was measured:
[1] = Intrinsic clearance and half-life in mouse microsomes; type: in vitro ADME
Description: Toward the goal to identify efficacious and safe RPAi 329 treatment regimens, we conducted single-agent screening in two lung cancer cell line-derived xenograft models. […] Having optimized cellular uptake and solubility via the addition of the propyl morpholino in 329 and 2004, we sought to determine how these modifications impact in vivo anticancer activity using two NSCLC models, A549 adenocarcinoma and H460 large cell carcinoma. […] Analyses of intrinsic clearance and half-life were conducted in mouse and rat microsomes ( Table 1 ). […] These values are less than the rate of 48, which is considered rapid clearance. In rat microsomes, rates of ~64 were obtained for 329 and are less than the rapid rate of 71.

[2] = Chemical stability in lead formulation; type: physicochemical; settings: for t90: 10 mg/ml in lead formulation; for predicted time stable: lead formulation; for fourteen-day stability: final formulation
Procedure: With favorable potency, cellular activity, plasma stability, and a clear deficit in PK, we initiated a series of studies to assess and optimize a formulation of 329 for in vivo bioavailability. Here, 329 solubility was assessed in a series of additives, excipients, and co-solvents to identify initial favorable vehicles ( Table 2 ). […] A series of different formulations were assessed. The final formulation consisted of polysorbate 80, N-methyl-2-pyrrolidone (NMP), propylene glycol, and PEG 400 (+1.1 mol. eq. HCl added as 12 M HCl), and 329 was soluble up to 20 mg/ml, and 10-fold dilution in PBS was well dispersed with minimal precipitation.
Figure 7 The 329 in vivo analysis. (A) Stability analysis. Compound stability was assessed over a 14-day time period at varying temperatures as indicated. (B) Pharmacokinetic analysis. Time course of drug plasma concentration over 24 h following drug administration as indicated in legend.

[3] = tested on: H460 NSCLC tumor xenografts; experiment: H460 NSCLC xenograft efficacy; type: in vivo, mice; settings: 20 mg/kg IP daily for 5 days, 2 days off, repeated 3 times, optimized formulation
Description: (§1) To assess anticancer efficacy, the hind flanks of 60 8–10-week-old Nod SCID gamma (NSG) mice were implanted with the indicated cells (~2 × 10^6) in Matrigel. Tumor volumes were monitored by electronic caliper measurement [tumor volumes = length × (perpendicular width)^2 × 0.5]. NSG studies were approved by the Institutional Animal Care and Use Committee at Indiana University School of Medicine. Male NSG (NOD‐scid/IL2Rg^null) mice (In Vivo Therapeutics Core Facility, IU Simon Comprehensive Cancer Center, Indianapolis, IN, USA) were used and housed in a pathogen‐free facility at IUSM LARC. Mice with tumors of approximately 100 mm^3 were randomized into individual treatment arms. The indicated RPAi was formulated and administered via intraperitoneal injection (IP) at the indicated times. Tumor volumes were monitored biweekly as indicated, and the results are presented as the average tumor volume ± standard error of the mean for each group. […]
(§2) Figure 8 In vivo analysis of anticancer activity of 329. (A) Anticancer activity was assessed in human H460 NCSLC tumor xenografts in NOD/SCID mice. Mice were implanted subcutaneously on day 1 with H460 NSCLC cells, tumors were measured by calipers, and mice assigned randomly to treatment arms. […] (C) Tumor weight from A549 cells was determined on day 32. […]

[4] = tested on: A549 adenocarcinoma xenografts; experiment: A549 xenograft efficacy; type: in vivo, mice
Description: as §1, §2

[5] = In vivo toxicity analysis
[6] = parameters: method as in PMID 32550990; settings: cited from earlier work

CCOc1ccc2cc(C3CC(c4ccc(I)cc4)=NN3C(=O)CCCC(=O)NCCCN3CCOCC3)c(Cl)nc2c1 (stereo not shown) [compound 329]
microsomal CLint ([1]; Mouse microsomes): 31.7 µL/min/mg
half-life ([1]; Mouse microsomes, read-out: t1/2): 43.9 min
half-life ([1]; mouse, rat, microsomes, in mice and rats, read-out: half-lives): 20 to 40 min
t90 ([2]; 5°C (extrapolated)): 2100 days
predicted time stable ([2]; 5°C, extrapolated): over 5 years
t90 ([2]; 25°C): 140 days
t90 ([2]; 40°C): 26 days
t90 ([2]; 60°C): 3.2 days
fourteen-day stability ([2]; extended incubations at 60°C): degradation was observed
predicted time stable ([2]; room temperature): over 3 months
fourteen-day stability ([2]; up to 40°C): very stable
tumor volume [3]: a decrease in tumor volume was observed starting at day 17
tumor growth ([4]; 40 mg/kg IP once daily from day 11, optimized formulation): significant reduction in tumor growth
terminal tumor weight ([4]; 40 mg/kg IP, day 32): significant smaller tumors
toxicity ([5]; 200 mg/kg in the new formulation): increased toxicity
kidney function ([5]; DMSO/Tween formulation, data not shown): no differences from vehicle controls
toxicity ([5]; dosing up to 200 mg/kg, suspension in DMSO/Tween): no overt toxicity
body weight ([5]; up to 200 mg/kg, suspension in DMSO/Tween): no significant loss in body weight
solubility, cellular uptake, and physicochemical properties [6]: excellent

Source: article PMC8895377, “In Vivo Targeting Replication Protein A for Cancer Therapy” (Frontiers in Oncology, 2022)
